Read-outs that look alike come from different tables or passages of the source.
Experiments:
[1] = test system: newly hatched broiler chicks; experiment: 21-day broiler chick feeding test of phosphorus bioavailability and weight gain; type: in vivo; conditions: 21 days
Method: The tests were conducted at a University Test Facility starting with newly hatched broiler chicks. The test was carried out over a 21-day period. Weight gain was measured in each group of 10 chicks. Also measured at the end of the test were weight gain/weight of feed, weight percent ash in the tibia, and the relative bioavailability.
Measurements were made comparing the results obtained with the test material and the Standard NRC technical grade hydrous dibasic calcium phosphate.

[2] = pH of buffering agent in water; type: physicochemical
Description: Materials frequently used in the art to buffer digestive fluids are sodium bicarbonate and magnesium oxide. […] Over-treatment with buffer may be caused by errors in estimates of animal size, and the composition of the digestive fluid and by errors in measuring the amounts of the buffering material.
(§1) The example compares performance of compositions of the instant invention with sodium bicarbonate, with regard to original pH, and amount of acid buffered to pH 6. One gram of buffering agent was mixed with 100 grams water and titrated to pH 6 by 0.1N hydrochloric acid.

[3] = Buffer capacity by titration to pH 6 with 0.1N hydrochloric acid; type: physicochemical
Description: as §1

[4] = test system: rumen juices of a ruminant animal; conditions: steer, 50 lbs/day ration, three days on ration
Description: A ruminating steer weighing about 1100 pounds which had been fistulated so that rumen fluid samples could be withdrawn as desired for pH measurement was used in experiments in which the steer was fed a constant high energy ration typical of a finishing feedlot ration. The only change in the rations were in the types and amounts of buffering agent used. The buffering agents were blended into the feed ration prior to its use. The fistulated steer received the same buffered feed ration for three days prior to sampling the rumen fluid and determining pH.

Compound | Ash Content of Tibia, Wt % ([1]; Added P in feed 0.15 Wt %) [Wt %] | Avg. Wt. Gain, Gms ([1]; Added P in feed 0.15 Wt %) [Gms] | Wt. Gain, gms per grm feed ([1]; Added P in feed 0.15 Wt %) [gms per grm feed] | Ash Content of Tibia, Wt % ([1]; Added P in feed 0.25 Wt %) [Wt %] | Avg. Wt. Gain, Gms ([1]; Added P in feed 0.25 Wt %) [Gms] | Wt. Gain, gms per grm feed ([1]; Added P in feed 0.25 Wt %) [gms per grm feed] | Ash Content of Tibia, Wt % ([1]; Added P in feed 0.35 Wt %) [Wt %] | Avg. Wt. Gain, Gms ([1]; Added P in feed 0.35 Wt %) [Gms] | Wt. Gain, gms per grm feed ([1]; Added P in feed 0.35 Wt %) [gms per grm feed] | pH of Buffer 5% in H2O [2] | Buffer Capacity m.eg. of HCl brought to pH per gram compound ([3]; 1 gram in 100 grams water, titrated to pH 6 by 0.1N hydrochloric acid) | speed of changes in pH when combined with aqueous acid ([3]; during titration with 0.1N hydrochloric acid) | pH of Rumen Sample ([4]; buffer amount 0.5/1.00 lbs/%) | pH of Rumen Sample ([4]; buffer amount 0.8/1.60 lbs/%)
hydrous dibasic calcium phosphate [Standard Phosphorus Source] | 40.5 | 639.6 | 0.688 | 41.5 | 664.6 | 0.725 | 42.5 | 667.7 | 0.722 |  |  |  |  | 
O=C([O-])O.[Na+] [NaHCO3, sodium bicarbonate] |  |  |  |  |  |  |  |  |  | 9.0 | 10.0 m.eg. of HCl per gram compound | about instant | 6.7 | 7.4

Reference: patent US6451361B1, “Alkali metal magnesium phosphate hydrate buffering feed mineral” (Agri-Nutrients Technology Group, Inc., priority 2001, dated 2002)
